# Key:
# Format in all cases: functional
# Conditions in all cases: read-out: ED50 (the source's name)
# XF498 = experiment: Cytotoxicity against human XF498 cells
# HCT-15 = experiment: Cytotoxicity against human HCT15 cells
# SK-MEL-2 = experiment: Cytotoxicity against human SK-MEL-2 cells
# A549 = experiment: Cytotoxicity against human A549 cells
# SK-OV-3 = experiment: Cytotoxicity against human SKOV3 cells
compound,measurement,setting,value
COc1cccc2c1C(=O)c1c(O)c3c(c(O)c1C2=O)C[C@@](O)(C(=O)CO)C[C@@H]3O[C@H]1C[C@H](N)[C@H](O)[C@H](C)O1 [DOXORUBICIN],EC50,XF498,0.15 µg/mL
same,EC50,HCT-15,0.07 µg/mL
same,EC50,SK-MEL-2,0.03 µg/mL
same,EC50,A549,0.03 µg/mL
same,EC50,SK-OV-3,0.15 µg/mL

# Reference: ChEMBL document CHEMBL1150681, “New acetylenic acids from the marine sponge Stelletta species” (2003)
